Tests used:
[1] = tested on: S. carpocapsae infective juveniles (IJs); assay: S. carpocapsae host-finding assay (non-target); assay type: in vivo, Steinernema carpocapsae; settings: Fig 5E; chemotaxis towards insect host Galleria mellonella; 100 IJs incubated 24 h in 100 μM uNLP; n = 5; control 0.2315
Protocol: S. carpocapsae were cultured in Galleria mellonella at 23°C. Infective juveniles (IJs) were collected using a White trap in PBS. Freshly emerged IJs were used for each assay. 100 IJs were incubated for 24 hours in 100 μM of selected uNLPs, and host-finding assays (n = 5) performed as in Morris et al..

[2] = tested on: M. incognita J2s; assay: Tomato invasion assay with uNLP pre-treated J2s; assay type: in vivo, Meloidogyne incognita; settings: for % Invasion: mean
Protocol: (§1) Predicted uNLPs from both M. incognita and G. pallida were synthesised by EZBiolab and dissolved into pH adjusted ddH2O to make a 5 mM stock which was aliquoted and stored at -20°C. J2s of both M. incognita and G. pallida were incubated for 24 hours in 200 μl of each peptide in a 24 well plate (SPL Lifesciences, South Korea) at a defined concentration.
(§2) Tomato seeds were sterilised with 2.5% NaOCl for 15 minutes, washed 5 times in ddH20 and germinated on 0.5% Murashige and Skoog plates at 23°C. […] Invasion assays were performed by mixing 500 pre-treated M. incognita or G. pallida J2s with agar slurry and a single tomato seedling (2 days post germination) in a 6 well plate. Assays were left at 23°C for 24 hours in the case of M. incognita and at 18°C for 24 hours in the case of G. pallida under a 16 hour light and 8 hour darkness cycle. Seedlings were stained using acid fuschin [69] and the number of nematodes within the roots counted. At least five seedlings were used for M. incognita infections assays, with at least 15 seedlings used for G. pallida infections assays (due to increased variation).

[3] = tested on: G. pallida J2s; assay: Tomato invasion assay with uNLP pre-treated J2s; assay type: in vivo, Globodera pallida; settings: 100 μM uNLP, 24 h; tomato cv. Moneymaker; relative to controls
Protocol: as §1, §2

[4] = tested on: M. incognita J2s; assay: Serotonin-induced stylet thrusting assay; assay type: in vivo, Meloidogyne incognita; settings: Fig 1C; J2s incubated in 100 μM uNLP for 24 h; stylet thrusts in 5 mM serotonin, counted 1 min; normalised to control = 100%; mean, at least 30 J2s
Protocol: as §1
Stylet thrusting assays where performed by incubating 100 M. incognita or G. pallida J2s for 15 minute in 5 mM or 2 mM serotonin (Sigma Aldrich, USA), respectively. J2s were placed on a glass slide and stylet thrusts were counted for randomly selected J2s, for 1 minute each. Counts for a given cohort of J2s were taken in a maximum interval of 15 minutes. Longer counting intervals, making for longer serotonin incubations, yielded inconsistent results. At least 30 J2s were counted for each neuropeptide treatment.

[5] = tested on: M. incognita J2s; assay: Plant protection assay, B. subtilis secreting uNLPs; assay type: in vivo, Meloidogyne incognita; settings: Fig 4B; peptide secreted by transgenic B. subtilis culture in tomato invasion arena with 500 J2s; control = 100%; mean
Protocol: as §2
B. subtilis were grown overnight in LB media containing ampicillin (100 μg/ml) at 37°C with shaking, and harvested in the log phase of growth determined by measuring OD600nm. Five ml of culture at 0.5 OD was spun down and the pellet mixed with 3 ml of agar slurry and 500 J2s from either G. pallida or M. incognita. C. reinhardtii clones were grown at 23°C with shaking, cultures in the log phase were measured at OD750 and 5 ml of culture at 0.5 OD was pelleted by centrifugation. C. reinhardtii pellets were mixed with 3 ml of agar slurry and 500 J2s from either G. pallida or M. incognita. Plant invasion assays were performed as described above. […]

[6] = tested on: mixed-stage C. elegans; assay: C. elegans chemotaxis assay (non-target); assay type: in vivo, Caenorhabditis elegans; settings: worms soaked in 100 μM uNLP 24 h, counted after 1 h, 8 replicates
Protocol: C. elegans wild-type N2 Bristol strain were obtained from the C. elegans Genomics Center and maintained on a Escherichia coli (strain OP50) lawn on nematode growth medium (NGM) agar plates (3 g/l NaCl, 17 g/l agar, 2.5 g/l peptone, 5 mg/l cholesterol, 25 mM KH2PO4 (pH 6.0), 1 mM CaCl2, 1 mM MgSO4) at 20°C [70]. Chemotaxis assays were performed in a 9 cm diameter Petri dish on NGM agar which was split into a positive and negative side with a central ‘dead zone’ of 1.5 cm diameter. 100 mixed-staged C. elegans were washed three times in M9 buffer and soaked in 100 μM PPN uNLP, or M9 vehicle control for 24 hours. 2 μl of 50 mM sodium acetate, 0.5% pyrazine, 0.5% benzaldehyde or 0.5% diacetyl was spotted onto the positive side, 2 μl of ddH20 was spotted onto the negative side. Pyrazine, benzaldehyde and diacetyl volatile attractants were assayed immediately whereas the water soluble sodium acetate was assayed 18 hours following addition to the plate. Assays were maintained in the dark at 20°C, and counted after 1 hour. Eight replicates were conducted for each C. elegans attraction assay.

SFDSFTGPGFTGLD [Mi-NLP-15b, predicted unamidated NLP perfectly conserved between M. incognita and G. pallida; synthesised, also secreted from transgenic microbes]
CI score [1]: 0.2225 | effect on host invasion (in words) ([2]; 100 μM uNLP, 24 h, tomato cv. Moneymaker, relative to controls): inhibited | % Invasion ([2]; Fig 1B, 500 J2s incubated in 100 μM uNLP for 24 h, single tomato seedling, 24 h at 23°C, normalised to negative control = 100%): 32.22% | % Invasion ([2]; Fig 3B, 100 nM peptide, 24 h, control = 100%): 69.90% | % Invasion ([2]; Fig 3B, 1 µM peptide, 24 h, control = 100%): 59.05% | % Invasion ([2]; Fig 3B, 10 µM peptide, 24 h, control = 100%): 54.62% | % Invasion ([2]; Fig 3B, 100 µM peptide, 24 h, control = 100%): 35.06% | effect on host invasion (in words) [3]: does not inhibit host invasion | % Thrusting [4]: 129.90% | % Invasion [5]: 26.63% | CI score ([6]; Fig 5A, attractant sodium acetate (50 mM), control 0.4269): 0.3142 | CI score ([6]; Fig 5B, attractant pyrazine (0.5%), control 0.4904): 0.4959 | CI score ([6]; Fig 5C, attractant benzaldehyde (0.5%), control 0.7026): 0.7032 | CI score ([6]; Fig 5D, attractant diacetyl (0.5%), control 0.6638): 0.664

From PMC5344539, “Nematode neuropeptides as transgenic nematicides” (PLoS Pathogens, 2017)
